This passage reports IC50 results from ChEMBL document CHEMBL3769322, “Synthesis and evaluation of anticancer and antiobesity activity of 1-ethoxy carbonyl-3,5-bis (3'-indolyl methylene)-4-pyperidone analogs” (Bioorg Med Chem Lett, 2016).

The structures appear in SMILES notation.

A word on the IC50: it is the concentration that gives 50% inhibition.

Assay [1] can be described thus: Inhibition of porcine pancreatic lipase type 2 using p-nitrophenyl laurate as substrate after 2 hrs by UV spectrophotometric analysis. The arrangement: species or system Sus scrofa.
The subject of assay [2] is A549. Put plainly: Cytotoxicity against human A549 cells by MTT assay. Format: functional, cell-based. For orientation: Tetrazolium assays rely on reduction of a dye to a coloured formazan, in cell work by metabolically active cells.
The nature of assay [3]: Cytotoxicity against human SKOV3 cells by MTT assay. It is filed as functional, cell-based. To be noted: SK-OV-3.
Assay [4] concerns HepG2. The assay can be described thus: Cytotoxicity activity against human HepG2 cells by MTT assay. Format: functional, cell-based.
Assay [5] relates to MCF7. The assay can be described thus: Cytotoxicity against human MCF7 cells by MTT assay. It is filed as functional, cell-based.
Assay [6] relates to HeLa. Put plainly: Cytotoxicity against human HeLa cells by MTT assay. It is filed as functional, cell-based.

Take `CCOC(=O)N1C/C(=C\c2cn(Cc3ccccc3)c3ccccc23)C(=O)/C(=C/c2cn(Cc3ccccc3)c3ccccc23)C1`: the IC50 result in assay [1] was “Not Active”; in assay [2], greater than 100 µM; in assay [3], greater than 100 µM; in assay [4] it was greater than 100 µM; in assay [5] it was greater than 100 µM; in assay [6], greater than 100 µM.
In the case of `CCOC(=O)N1C/C(=C\c2cn(Cc3ccc(Br)cc3)c3ccccc23)C(=O)/C(=C/c2cn(Cc3ccc(Br)cc3)c3ccccc23)C1`, the concentration for half-maximal inhibition (IC50) result is “Not Active” in assay [1]; greater than 100 µM in assay [2]; greater than 100 µM in assay [3]; greater than 100 µM in assay [4]; greater than 100 µM in assay [5]; greater than 100 µM in assay [6].
With `CCOC(=O)N1C/C(=C\c2cn(Cc3ccccc3C#N)c3ccccc23)C(=O)/C(=C/c2cn(Cc3ccccc3C#N)c3ccccc23)C1`, the 50% inhibitory concentration (IC50) entry in assay [1] was “Not Active”; in assay [2] it was greater than 100 µM; in assay [3] it was greater than 100 µM; in assay [4], greater than 100 µM; in assay [5], greater than 100 µM; in assay [6], greater than 100 µM.
With `CCOC(=O)N1C/C(=C\c2cn(Cc3ccc([N+](=O)[O-])cc3)c3ccccc23)C(=O)/C(=C/c2cn(Cc3ccc([N+](=O)[O-])cc3)c3ccccc23)C1`, the 50% inhibitory concentration (IC50) was 30.9 µM in assay [1] (read-out: IC50); 16 µM in assay [2]; greater than 100 µM in assay [3]; greater than 100 µM in assay [4]; greater than 100 µM in assay [5]; greater than 100 µM in assay [6].
On to `CCOC(=O)N1C/C(=C\c2cn(Cc3ccccc3Cl)c3ccccc23)C(=O)/C(=C/c2cn(Cc3ccccc3Cl)c3ccccc23)C1`, for which the concentration for half-maximal inhibition (IC50) entry in assay [1] was “Not Active”; in assay [2], 2.75 µM; in assay [3] it was 50.6 µM; in assay [4], greater than 100 µM; in assay [5] it was greater than 100 µM; in assay [6], greater than 100 µM.
In the case of `COc1cc(/C=C/C(=O)CC(=O)/C=C/c2ccc(O)c(OC)c2)ccc1O` [CURCUMIN], the concentration for half-maximal inhibition (IC50) in assay [2] turned out to be 23.5 µM; in assay [3], 49.9 µM; in assay [4], 4.43 µM; in assay [5], 46.2 µM; in assay [6] it was 51.9 µM.
With `CCCCCCCCCCC[C@@H](C[C@@H]1OC(=O)[C@H]1CCCCCC)OC(=O)[C@H](CC(C)C)NC=O` [ORLISTAT], the 50% inhibitory concentration (IC50) in assay [1] (read-out: IC50) stood at 62.2 µM.
On to `CCOC(=O)N1C/C(=C\c2cn(Cc3ccccc3F)c3ccccc23)C(=O)/C(=C/c2cn(Cc3ccccc3F)c3ccccc23)C1`, for which the IC50 in assay [1] (read-out: IC50) was 56.4 µM; in assay [2], 29.1 µM; in assay [3] it was 85.5 µM; in assay [4], greater than 100 µM; in assay [5], greater than 100 µM; in assay [6] it was greater than 100 µM.
Turning to `CCOC(=O)N1C/C(=C\c2cn(Cc3ccc(Cl)cc3Cl)c3ccccc23)C(=O)/C(=C/c2cn(Cc3ccc(Cl)cc3Cl)c3ccccc23)C1`, the 50% inhibitory concentration (IC50) in assay [1] (read-out: IC50) was 14.9 µM; in assay [2], greater than 100 µM; in assay [3] it was greater than 100 µM; in assay [4], greater than 100 µM; in assay [5], greater than 100 µM; in assay [6], greater than 100 µM.
Consider `COc1cccc2c1C(=O)c1c(O)c3c(c(O)c1C2=O)C[C@@](O)(C(=O)CO)C[C@@H]3O[C@H]1C[C@H](N)[C@H](O)[C@H](C)O1` [DOXORUBICIN], for which the half-maximal inhibitory concentration (IC50) in assay [2] came out at 0.14 µM; in assay [3], 16.4 µM; in assay [4], 10.2 µM; in assay [6], 9.03 µM.
Consider `CCOC(=O)N1C/C(=C\c2cn(Cc3ccc(F)cc3)c3ccccc23)C(=O)/C(=C/c2cn(Cc3ccc(F)cc3)c3ccccc23)C1`, for which the concentration for half-maximal inhibition (IC50) entry is “Not Active” in assay [1]; greater than 100 µM in assay [2]; greater than 100 µM in assay [3]; greater than 100 µM in assay [4]; greater than 100 µM in assay [5]; 48 µM in assay [6].
For the compound `CCOC(=O)N1C/C(=C\c2cn(Cc3cccc(Cl)c3)c3ccccc23)C(=O)/C(=C/c2cn(Cc3cccc(Cl)c3)c3ccccc23)C1`, the IC50 entry was “Not Active” in assay [1]; 4.21 µM in assay [2]; 18 µM in assay [3]; 7.33 µM in assay [4]; greater than 100 µM in assay [5]; greater than 100 µM in assay [6].
As for `CCOC(=O)N1C/C(=C\c2cn(C)c3ccccc23)C(=O)/C(=C/c2cn(C)c3ccccc23)C1`, the IC50 entry in assay [1] is “Not Active”; in assay [2], 66.7 µM; in assay [3], 55.1 µM; in assay [4], greater than 100 µM; in assay [5] it was greater than 100 µM; in assay [6], greater than 100 µM.
For the compound `CCOC(=O)N1C/C(=C\c2cn(Cc3ccc(-c4ccccc4C#N)cc3)c3ccccc23)C(=O)/C(=C/c2cn(Cc3ccc(-c4ccccc4C#N)cc3)c3ccccc23)C1`, the IC50 entry was “Not Active” in assay [1]; greater than 100 µM in assay [2]; greater than 100 µM in assay [3]; greater than 100 µM in assay [4]; greater than 100 µM in assay [5]; greater than 100 µM in assay [6].
